Laboratory results published in BindingDB's records for PubMed 7915318 (Ohio State University, 1994).
Where “and” joins values, the source holds several entries; their conditions need not be identical. Equal entries are not always repeated.

Assays:
[1] = molecular target: Beta-1 adrenergic receptor (Cavia porcellus, UniProt B0FL73)
[2] = molecular target: Beta-2 adrenergic receptor (Cavia porcellus, UniProt Q8K4Z4)
[3] = molecular target: Beta-1 adrenergic receptor (Homo sapiens, UniProt P08588)
Chain of Beta-1 adrenergic receptor (Homo sapiens, UniProt P08588) (P08588 whole entry): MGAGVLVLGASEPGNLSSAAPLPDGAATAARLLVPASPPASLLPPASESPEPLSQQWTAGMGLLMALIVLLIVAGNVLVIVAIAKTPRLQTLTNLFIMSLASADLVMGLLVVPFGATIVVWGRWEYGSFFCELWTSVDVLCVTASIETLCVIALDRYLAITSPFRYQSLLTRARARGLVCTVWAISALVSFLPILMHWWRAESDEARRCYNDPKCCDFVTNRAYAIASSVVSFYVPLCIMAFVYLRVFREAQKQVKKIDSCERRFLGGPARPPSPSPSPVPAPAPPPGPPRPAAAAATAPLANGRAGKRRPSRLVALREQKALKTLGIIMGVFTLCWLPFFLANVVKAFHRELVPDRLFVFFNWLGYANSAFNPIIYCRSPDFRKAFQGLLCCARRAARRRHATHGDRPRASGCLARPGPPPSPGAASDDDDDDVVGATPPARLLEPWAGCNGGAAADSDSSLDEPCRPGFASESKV

[4] = molecular target: Beta-2 adrenergic receptor (Homo sapiens, UniProt P07550)
Chain of Beta-2 adrenergic receptor (Homo sapiens, UniProt P07550) (P07550 whole entry): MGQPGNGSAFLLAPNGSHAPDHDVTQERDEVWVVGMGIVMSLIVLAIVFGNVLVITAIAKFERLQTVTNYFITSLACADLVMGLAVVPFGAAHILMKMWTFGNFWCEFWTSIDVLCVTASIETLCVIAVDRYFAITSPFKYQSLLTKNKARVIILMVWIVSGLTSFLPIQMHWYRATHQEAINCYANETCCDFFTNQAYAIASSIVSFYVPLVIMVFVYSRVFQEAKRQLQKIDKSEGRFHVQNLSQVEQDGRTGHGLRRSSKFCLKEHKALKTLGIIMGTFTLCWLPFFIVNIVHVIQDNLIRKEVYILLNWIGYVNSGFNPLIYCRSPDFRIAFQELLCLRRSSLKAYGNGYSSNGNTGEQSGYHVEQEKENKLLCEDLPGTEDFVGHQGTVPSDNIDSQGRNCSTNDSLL

Chain of Beta-2 adrenergic receptor (Cavia porcellus, UniProt Q8K4Z4) (Q8K4Z4 whole entry): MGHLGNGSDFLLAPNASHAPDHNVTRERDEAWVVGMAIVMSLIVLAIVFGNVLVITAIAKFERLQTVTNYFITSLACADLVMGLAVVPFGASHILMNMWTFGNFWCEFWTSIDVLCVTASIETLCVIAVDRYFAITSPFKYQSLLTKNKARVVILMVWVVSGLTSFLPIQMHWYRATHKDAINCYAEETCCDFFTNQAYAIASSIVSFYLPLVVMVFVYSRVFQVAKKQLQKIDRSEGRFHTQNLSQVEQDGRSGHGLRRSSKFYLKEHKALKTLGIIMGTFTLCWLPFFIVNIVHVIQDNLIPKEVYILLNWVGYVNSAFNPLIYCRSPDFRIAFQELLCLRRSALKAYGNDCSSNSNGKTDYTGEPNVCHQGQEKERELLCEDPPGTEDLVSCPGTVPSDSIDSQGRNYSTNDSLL
Chain of Beta-1 adrenergic receptor (Cavia porcellus, UniProt B0FL73) (B0FL73 whole entry): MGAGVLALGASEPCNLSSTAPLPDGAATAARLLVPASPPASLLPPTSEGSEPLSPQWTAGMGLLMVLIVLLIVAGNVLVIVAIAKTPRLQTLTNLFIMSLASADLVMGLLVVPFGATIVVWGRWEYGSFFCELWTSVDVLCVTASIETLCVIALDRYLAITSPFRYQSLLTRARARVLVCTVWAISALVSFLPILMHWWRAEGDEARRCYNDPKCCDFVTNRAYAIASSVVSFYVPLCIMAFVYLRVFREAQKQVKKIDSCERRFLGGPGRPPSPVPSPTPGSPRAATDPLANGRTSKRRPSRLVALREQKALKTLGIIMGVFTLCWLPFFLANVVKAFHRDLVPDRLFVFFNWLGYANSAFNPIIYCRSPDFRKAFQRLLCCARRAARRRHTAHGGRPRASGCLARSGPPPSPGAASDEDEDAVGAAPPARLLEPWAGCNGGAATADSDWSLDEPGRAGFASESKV

SMILES	Ki [1] [nM]	Ki [2]	Ki [3] [nM]	Ki [4]
COc1cc(CC2c3cc(O)c(O)cc3CCN2Cc2ccccc2)cc(OC)c1OC (stereo unspecified) [TMQ, N-benzyl]	1100			
COc1cc(CC2NCCc3c(F)c(O)c(O)c(F)c32)cc(OC)c1OC (stereo unspecified) [TMQ, 5,8-Difluoro]	34.7	6.6 nM and 4.26 nM	7.41	8.7 nM and 6.16 nM
COc1cc(CC2c3cc(O)c(O)cc3CCN2Cc2cccc(Cl)c2)cc(OC)c1OC (stereo unspecified) [TMQ, N-chloro-benzyl]	6170	1260 nM		
CC(C)(C)NCC(O)c1cc(O)cc(O)c1 (racemic) [Terbutaline,(+/-)]	> 10000			
COc1cc(CC2NCCc3cc(O)c(O)c(F)c32)cc(OC)c1OC (racemic) [NSC_128658]			37.1	8.7 nM
CC(C)NCC(O)c1ccc(O)c(O)c1 (stereo not drawn) [Isoproterenol,(+)]		324 nM and 107 nM		
CC(C)NCC(O)COc1cccc2[nH]ccc12 (stereo unspecified) [LB-46]	7.24	2.63 nM and 1.14 nM		
COc1cc(CC2=NCCc3cc(O)c(O)cc32)cc(OC)c1OC [TMQ, Amidine]		> 10000 nM		
COc1cc(CC2c3cc(O)c(O)cc3CCN2Cc2cccc([N+](=O)[O-])c2)cc(OC)c1OC (stereo unspecified) [TMQ, N-nitro-benzyl]		1620 nM and 1480 nM		
COc1cc(CC2c3cc(O)c(O)cc3CCN2CCO)cc(OC)c1OC (stereo unspecified) [TMQ, N-hydroxyethyl]	5370	2750 nM		
COc1cc(CC2NCCc3c2cc(O)c(O)c3C(F)(F)F)cc(OC)c1OC (stereo unspecified) [TMQ, 5-TrifluoroMe]	1100	1170 nM and 912 nM		
COc1cc(CC2NCCc3cc(O)c(O)cc32)cc2c1OS(=O)O2 (stereo unspecified) [TMQ, Cyclic sulfite]	> 10000	3470 nM and 1950 nM		
COc1cc(C[C@H]2NCCc3cc(O)c(O)cc32)cc(OC)c1OC [TMQ, R-(+)]	> 10000	> 10000 nM and 9330 nM		
COc1cc(CC2NCCc3cc(O)c(O)cc32)cc(N)c1OC (stereo unspecified) [TMQ, 3'-Amino]	457	490 nM and 97.7 nM	214	141 nM
COc1cc(C[C@@H]2NCCc3cc(O)c(O)cc32)cc(OC)c1OC [CAS_65772]	110	27.5 nM and 9.77 nM		
COc1cc(CC2NCCc3cc(O)c(O)cc32)cc([N+](=O)[O-])c1OC (stereo unspecified) [TMQ, 3'-Nitro]	31.6	11 nM and 2.75 nM	14.8	46.8 nM
COc1cc(CC2NCCc3c2cc(O)c(O)c3I)cc(OC)c1OC (stereo unspecified) [TMQ, 5-Iodo]	33.9	37.1 nM and 11.5 nM		10.2 nM
COc1c(I)cc(CC2NCCc3cc(O)c(O)cc32)cc1I (stereo unspecified) [TMQ, 3',5'-Diiodo]	10.5	2.81 nM and 0.97 nM		0.58 nM and 0.74 nM
COc1cc(CC2c3cc(O)c(O)cc3CCN2Cc2ccc(Cl)c(Cl)c2)cc(OC)c1OC (stereo unspecified) [TMQ, N-dichlorobenzyl]	3550	1860 nM		
COc1cc(CC2NCCc3cc(O)c(O)cc32)cc(I)c1OC (stereo unspecified) [TMQ, 3'-Iodo]	10	1.09 nM and 2.34 nM	12.6	2.69 nM and 1.69 nM
COc1cc(C[C@H]2NCCc3cc(O)c(O)c(F)c32)cc(OC)c1OC [TMQ, R-(-)-8-Fluoro]			417	437 nM
COc1cc(CC2c3cc(O)c(O)cc3CCN2C)cc(OC)c1OC (stereo unspecified) [TMQ, N-methyl]		851 nM		
COc1cc(CC2NCCc3cc(O)c(O)c(I)c32)cc(OC)c1OC (stereo unspecified) [TMQ, 8-Iodo]	631	363 nM and 380 nM		759 nM and 437 nM
COc1cc(CC2NCCc3cc(O)c(O)cc32)cc(OC)c1OC (stereo unspecified) [1-(3,4,5-Trimethoxy-benzyl)-1,2,3,4-tetrahydro-isoquinoline-6,7-diol]		105 nM and 22.9 nM		
COc1cc(C[C@@H]2NCCc3cc(O)c(O)c(F)c32)cc(OC)c1OC [TMQ, S-(+)-8-Fluoro]			67.6	10.2 nM
COc1cc(CC2c3cc(O)c(O)cc3CCN2Cc2cccc(N)c2)cc(OC)c1OC (stereo unspecified) [TMQ, N-amino-benzyl]		3720 nM and 1320 nM		933 nM
